Laboratory results reported in ChEMBL document CHEMBL1201862, “PubChem BioAssay data set” (2004).
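Tested at 5 concentrations; 48 h exposure; 96-well plates; endpoints linearly interpolated, else capped at highest concentration. GI50 is the concentration that inhibits growth by half.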 The source made the active and inactive calls. Cut-off read from the data, not from the text of the source: active = GI50 up to about 1.1 µM and inactive = higher.

Tests used:
Test in all cases: NCI-60 cell line screen, 48 h
MDA-N = tested on: MDA-N
UACC-257 = tested on: UACC-257
SR = tested on: SR
SNB-75 = tested on: SNB-75
HL-60 = tested on: HL-60
ACHN = tested on: ACHN
NCI-H23 = tested on: NCI-H23
SN12C = tested on: SN12C
MDA-MB-435 = tested on: MDA-MB-435
U-251 = tested on: U-251
HOP-62 = tested on: HOP-62
OVCAR-4 = tested on: OVCAR-4
HOP-92 = tested on: HOP-92
A498 = tested on: A498
SF-268 = tested on: SF-268
MDA-MB-231 = tested on: MDA-MB-231
UO-31 = tested on: UO-31
SF-295 = tested on: SF-295
T47D = tested on: T47D
RXF 393 = tested on: RXF 393

Measured: GI50

COC(=O)[C@H](CCSC)NC(=O)N[C@H](C)c1ccccc1
inactive: MDA-N > 100 µM | UACC-257 86.7 µM | SR > 100 µM | SNB-75 > 100 µM | HL-60 > 100 µM | ACHN > 100 µM | NCI-H23 > 100 µM | SN12C > 100 µM | MDA-MB-435 > 100 µM | U-251 > 100 µM | HOP-62 > 100 µM | OVCAR-4 > 100 µM | HOP-92 43.5 µM | A498 > 100 µM | SF-268 > 100 µM | MDA-MB-231 > 100 µM | UO-31 > 100 µM | SF-295 > 100 µM

O=C1Nc2ccc(Br)cc2/C1=C/C(=O)c1ccccc1
inactive: UACC-257 15.1 µM | SR 4.37 µM | SNB-75 17.3 µM | T47D 14.7 µM | HL-60 2.83 µM | ACHN 1.87 µM | RXF 393 1.95 µM | NCI-H23 10.2 µM | SN12C 4.2 µM | MDA-MB-435 16.2 µM | U-251 17.9 µM | HOP-62 22.7 µM | OVCAR-4 13.7 µM | HOP-92 4.13 µM | A498 18.6 µM | SF-268 19.5 µM | MDA-MB-231 15.5 µM | UO-31 2.49 µM | SF-295 17.8 µM

CC(C)(C)OC(=O)CN1C(=O)CC1CC(=O)c1ccccc1 (stereo not given)
inactive: MDA-N 20.3 µM | UACC-257 18.2 µM | SR 2.89 µM | HL-60 20 µM | ACHN 21.2 µM | RXF 393 18.5 µM | NCI-H23 18.5 µM | SN12C 23.2 µM | MDA-MB-435 18.9 µM | U-251 16 µM | HOP-62 17 µM | OVCAR-4 30.5 µM | HOP-92 37.4 µM | A498 27.4 µM | SF-268 17.9 µM | MDA-MB-231 17.2 µM | UO-31 17.2 µM | SF-295 26.9 µM

O=C(CSCC(=O)N/N=C\c1ccc(-c2ccccc2)cc1)N/N=C\c1ccc(-c2ccccc2)cc1
inactive: UACC-257 35.7 µM | SR 6.58 µM | SNB-75 16.3 µM | T47D 34.9 µM | ACHN 23.9 µM | RXF 393 50.5 µM | NCI-H23 17.8 µM | SN12C 24.7 µM | MDA-MB-435 18.8 µM | U-251 17.7 µM | HOP-62 23 µM | OVCAR-4 20.7 µM | HOP-92 45.6 µM | SF-268 15.8 µM | MDA-MB-231 10.7 µM | UO-31 28.5 µM | SF-295 18.2 µM

CSCCCNC(=O)[C@H](CSC)NC(=O)c1csc(CCNC(=O)[C@@H](NSc2ccccc2[N+](=O)[O-])C(C)O)n1 (stereo not given in full)
inactive: MDA-N > 100 µM | UACC-257 > 100 µM | SR > 100 µM | SNB-75 28.2 µM | HL-60 > 100 µM | ACHN > 100 µM | RXF 393 > 100 µM | NCI-H23 > 100 µM | SN12C > 100 µM | MDA-MB-435 > 100 µM | U-251 > 100 µM | HOP-62 > 100 µM | OVCAR-4 > 100 µM | HOP-92 > 100 µM | A498 > 100 µM | SF-268 > 100 µM | MDA-MB-231 > 100 µM | UO-31 > 100 µM | SF-295 > 100 µM

CCCC(=O)OC[n+]1ccc(-c2c(COC(=O)NC(C)C)c(COC(=O)NC(C)C)c3n2CCC3)cc1
inactive: UACC-257 > 100 µM | SR 4.99 µM | SNB-75 87.3 µM | T47D > 100 µM | HL-60 33.3 µM | ACHN 15.4 µM | RXF 393 34.5 µM | NCI-H23 > 100 µM | SN12C > 100 µM | MDA-MB-435 > 100 µM | U-251 > 100 µM | HOP-62 84.1 µM | OVCAR-4 > 100 µM | HOP-92 > 100 µM | A498 39.7 µM | SF-268 65.8 µM | MDA-MB-231 > 100 µM | UO-31 > 100 µM | SF-295 81.7 µM

COc1cc(C2C3C=CC=C4CC=CC(=C43)C3CCC(=O)N32)cc(OC)c1OC (stereo not given)
inactive: UACC-257 > 100 µM | SR > 100 µM | SNB-75 > 100 µM | T47D 36.1 µM | HL-60 64.1 µM | ACHN > 100 µM | SN12C > 100 µM | MDA-MB-435 > 100 µM | U-251 > 100 µM | HOP-62 > 100 µM | HOP-92 85.9 µM | A498 > 100 µM | SF-268 > 100 µM | MDA-MB-231 > 100 µM | UO-31 48.9 µM | SF-295 > 100 µM

O=C1N/N=C\c2ccc(cc2)OCc2cccc(n2)COc2ccc(cc2)/C=N\NC1=O
inactive: MDA-N > 25 µM | UACC-257 > 25 µM | SR > 25 µM | SNB-75 14.6 µM | HL-60 > 25 µM | ACHN > 25 µM | RXF 393 > 25 µM | NCI-H23 > 25 µM | SN12C > 25 µM | MDA-MB-435 > 25 µM | U-251 > 25 µM | HOP-62 > 25 µM | OVCAR-4 > 25 µM | HOP-92 > 25 µM | A498 > 25 µM | SF-268 > 25 µM | MDA-MB-231 > 25 µM | UO-31 > 25 µM | SF-295 > 25 µM

Cc1cc(Cl)nc(Nc2nc3ccccc3[nH]2)n1
inactive: MDA-N > 100 µM | UACC-257 > 100 µM | SR 32.1 µM | SNB-75 > 100 µM | HL-60 > 100 µM | ACHN > 100 µM | RXF 393 > 100 µM | NCI-H23 > 100 µM | SN12C > 100 µM | MDA-MB-435 > 100 µM | U-251 > 100 µM | HOP-62 > 100 µM | OVCAR-4 > 100 µM | HOP-92 21.8 µM | A498 > 100 µM | SF-268 > 100 µM | MDA-MB-231 > 100 µM | UO-31 > 100 µM | SF-295 > 100 µM

C=CC(Cl)(CBr)CCC(Br)=C(C)C (stereo not given)
inactive: MDA-N 19.4 µM | UACC-257 25.8 µM | SR 21.7 µM | SNB-75 41.5 µM | ACHN 21.6 µM | RXF 393 17.5 µM | NCI-H23 25.9 µM | SN12C 16.9 µM | MDA-MB-435 20.4 µM | U-251 16.9 µM | HOP-62 > 100 µM | OVCAR-4 20.8 µM | HOP-92 16.9 µM | A498 > 100 µM | SF-268 21 µM | MDA-MB-231 19.4 µM | UO-31 18.8 µM | SF-295 35.9 µM

COc1ccc(NC(=O)/C(CC2=Nc3ccc([N+](=O)[O-])cc3NC2O)=N\NC(=O)C[N+](C)(C)C)c(OC)c1 (stereo not given)
inactive: MDA-N > 100 µM | UACC-257 > 100 µM | SR 18.4 µM | SNB-75 > 100 µM | HL-60 > 100 µM | ACHN 67.5 µM | RXF 393 21.6 µM | NCI-H23 84.3 µM | SN12C 61 µM | MDA-MB-435 > 100 µM | U-251 40.7 µM | HOP-62 22.2 µM | OVCAR-4 80 µM | HOP-92 72.3 µM | SF-268 > 100 µM | MDA-MB-231 12.9 µM | UO-31 34.3 µM | SF-295 > 100 µM
